Results on one compound are retold here after US20170269060A1, “Assays and Compounds to Treat Kidney Diseases” (Rush University Medical Center, priority 2014, published 2017).

Test [1] concerns murine podocytes. Nature of the test: Podocyte HCS phenotypic assay, PAN-induced podocyte injury. The test is classed as cell-based. The method, then: Conditionally immortalized human and murine podocytes were used in a majority of the assays. Human and murine podocytes were cultured as have been described previously (Saleem et al., JASN 13, 630-638 (2002); Mundel, Reiser et al., Experimental Cell Research, 236, p 248 (1997)). For example, murine podocytes derived from the mouse line H-2Kb-tsA58 were cultured under permissive conditions at 33° C. on rat-tail collagen coated dishes in RPMI medium supplemented with 10% heat inactivated FBS, penicillin and streptomycin (100 U/ml), and 10 U/ml recombinant mouse γ-interferon. Cells were then trypsinized and re-plated for differentiation at 37° C. in medium without γ-interferon. The cells were differentiated for 0 to 7 days and then reseeded to rat-tail collagen coated multi-well plates at a density of 1500/well or 500/well for 96 and 384 well plates, respectively. Cells were then further differentiated for another 5-14 days in the multi-well plates for subsequent experimentation with various reagents prior to fixation and analyses.
In some embodiments, podocytes were cultured at 37° C. for the first 7 days of differentiation in large tissue culture flasks and subsequently reseeded and further cultured at 37° C. in the 96-well assay plates for the next 4-6 days to provide low well-to-well variability in cell number in the assay plates and healthy podocytes expressing specific and well characterized podocyte markers synaptopodin and podocin.
Differentiated podocytes were cultured in 96-well or 384-well multiwall optical plates (PerkinElmer, Boston, Mass.). In some embodiments, differentiated podocytes were treated with various amounts of puromycin aminonucleoside (PAN), […] LPS, Adriamycin and other agents. In some embodiments, the cells were co-treated with chemical and other agents (such as mizouribine) to prevent damage from damaging agents (such as PAN). In other embodiments, the rescue agents were added 0-48 h after the addition of injury causing agents. In some embodiments, patient samples such as blood, serum, urine or other samples were added to differentiated podocytes to identify disease causing agents. In some embodiments, primary, differentiated patient podocytes were cultured to identify defects in structure and/or function.
After culturing for the appropriate time and treatment or control, cultured podocytes in multi-well optical plates were rinsed with phosphate buffered saline (PBS) and subsequently fixed using a solution of paraformaldehyde and sucrose in PBS (at a final concentration of 4% paraformaldehyde and 2% sucrose in PBS) for 30 min at room temperature. Following fixation, the cells were permeabilization using a solution of 0.3% Triton X-100 in PBS for 15 min at room temperature. For visualization of filamentous-actin (F-Actin) in cells, cells were stained with a solution of Alexa fluor 568 phalloidin (Invitrogen), as previously described. HCS CellMask Blue (Invitrogen) was used as a fluorescent stain for visualizing nuclei, cytoplasm and the individual cell boundaries. Additional proteins that were fluorescently labeled and analyzed using appropriate primary mAbs include synaptopodin (synpo, primary mAb from Santa Cruz), Paxillin (primary mAb clone Y113 from Millipore) for quantitation of focal adhesions, beta1 integrin, podocin, WT1 nephrin, CD2-AP may also be used. Other proteins may also be used for labeling. Appropriate secondary antibodies (fluorescently labeled) were used for fluorescent visualizations. High throughput confocal microscopy was done using the Opera LX (Perkin Elmer) with filters and exposure times according to manufacturer's instructions and as described before. Images were used in subsequent image analysis for quantitation of a variety of cellular parameters. Assays were performed in replicate wells for assay robustness.
Images for each frame of each well in multiple fluorescent channels were acquired using OPERA imaging system. […]

Test [2] concerns murine podocytes. Nature of the test: Primary HCS screen of chemical library, cell roundness Z score, PAN injury. The class given is cell-based. As to conditions: PAN 16 μg/ml, 48 hours; Z-score cutoff ≦−1.28. The method, then: Screening of chemical libraries, which include the MicroSource Spectrum collection (MicroSource Discovery Systems, Inc., Gaylorsville, C T, 2000 compounds) and Enzo kinase inhibitor array (Enzo Life Sciences, Farmingdale, N.Y., 80 compounds), Sigma, Millipore, Tocris and Cayman (41 compounds), was performed using multiwall plates. Podocytes cultured in multiwall plates were used in these assays. 100 nL of each compound, also in multiwall plates (at a stock concentration of 1 mM to 10 mM in DMSO), was added to each well of a podocyte containing multiwall plate using the Perkin Elmer Janus automated workstation with the help of a 96-pin or 384-pin pin tool (100 nL, PerkinElmer). The compounds were added in the absence or presence of podocyte damaging agent (such as PAN). The plates containing the compounds were subsequently placed in tissue culture incubators and cells were further cultured for 1-72 h at 37° C. A compound that decreased PAN damaged was identified by quantifying the changes in at least one of the following parameters: cell morphology, cell roundedness, F-actin intensity, number of focal adhesions, intensity or size of focal adhesions, length of actin fibers, size of actin fibers, percent damaged or percent healthy cells etc. In certain cases, hits were validated by acquiring a fresh batch of the compound from commercial sources and performing dose-response curves. Images from the primary screen were quantified for cell morphology parameter and were normalized by calculating z-score (z) for each test compound, to compensate for any plate-to-plate variability. (Wiggins, Kidney International, 2007) z was calculated for each of the test compounds using the formula: […]
where x is the raw measured value with each compound, μ is the mean of all measured raw values across a plate and a is the standard deviation of the measurements. A z-score of […], corresponding to 90% population under the curve, was used as a cutoff to identify primary hits in the assay.
To identify small molecules that protect podocytes from PAN injury, a chemical library of 2121 pharmacologically active compounds was screened. Podocytes were treated with compounds from the chemical library in the presence of PAN (16 μg/ml) at 37° C. for 48 hours. The assay plates also contained eight positive (PAN and MZR treatment) and eight negative (PAN treatment) control wells. Wells were imaged and analyzed, and the mean cell roundness per cell was calculated for each well. Mean cell roundness was normalized using plate-based positive and negative controls, and a Z score for the change in cell morphology on treatment with each compound (SD away from the plate mean) was calculated. The results from the screen are presented as a graph in FIG. 7A. Wells with nuclei counts. […] Primary hits (compounds that protected podocytes from PAN damage) were identified from the assay using a Z-score cutoff of ≦−1.28 corresponding to the 10% population on one side of the bell-shaped curve. […] Given that our assay is image based, the images from all initial hits were visually inspected manually, which eliminated 10 compounds as nonhits. […] The identified list of primary hit compounds included three Rho kinase inhibitors (Y27632, GSK 429286, and Thiazovivin) and a p38 kinase inhibitor (SB 203580). […] Next, to validate the hit compounds identified from our screen, selected primary hits were reanalyzed using independently obtained powder forms of the compounds.

SMILES strings stand for the structures.

For the compound `O=S(=O)(NCC1CC1)c1ccc(Nc2nccc(N3CCCc4cc(O)ccc43)n2)cc1` [Pyrintegrin], in the test on murine podocytes [1] (30 ug/ml PAN, co-treatment, multi-parameter algorithm), the “prevention of PAN induced injury, dose-response of percent damaged cells (FIG. 4A-4P)” value is given as “prevented PAN induced injury”. For the same compound, the EC50 in the test with murine podocytes [1] (PAN 16 μg/ml, 48 hours, F-actin fibers per cell (FIG. 8), read-out: apparent half-maximal effective concentration (EC50), protection from PAN-induced damage) was 800 nM. For the same compound, in the test with murine podocytes [1] (PAN 16-30 μg/ml, 48 hours, F-actin fibers and other parameters), the “dose-dependent protection of podocytes from PAN-induced injury” value was “dose dependently protected”. Further, the “loss of actin stress fibers and focal adhesion complexes on PAN-induced injury” value in the test on murine podocytes [1] (PAN cotreatment (FIG. 9B)) is “protected podocytes from the loss of actin stress fibers and focal adhesion complexes”. The “actin stress fibers in healthy cells” value in the test with murine podocytes [1] (healthy cells, no PAN) is recorded as “small but significant increase in actin stress fibers”. Further, the “primary hit (protects podocytes from PAN damage)” value in the test on murine podocytes [2] is “top primary hit”.
